Test results: patent publication US20200270216A1, “COMPOSITIONS AND METHODS FOR INHIBITING N-SMASE2” (The Regents of the University of California, priority 2017, published 2020)

Assays:
Type in all cases: cell-based
[1] = test system: HEK293T Tau RD P301S FRET biosensor cells; assay: D+R functional assay: tau seed transfer from P2-seeded donor cells to DiD-labeled recipient cells; details: D+R model, flow cytometry (FIG. 4C)
Procedure: The compounds disclosed herein were further evaluated in the functional assays (“D+R approach”). The assays were based on the use of two cell populations—donor cells (D) and recipient cells (R). Recipients express a specific signal upon accumulation of protein aggregates (for example, FRET signal). The D+R approach can be divided into four steps (FIG. 4A).
In step 1, donor and recipient cells were plated in separation and protein aggregation is induced in the donor cells by using tissue-derived or synthetic proteopathic seeds (“seeding”) or by chemical and/or genetic methods. In step 2, either donor cells or recipient cells were labeled with a lipophilic dye (or by other cell labeling technology) in order to be able to distinguish between donor and recipients cells after trypsinization and re-plating of the donor and recipient cells together in step 3 (R+D). Alternatively, donor and recipient cells were physically divided by a permeable support (for example, Transwell). In any scenario, the cells were connected through the media and they grow for 24-60 hours with or without addition of pre-selected compounds. Efficiency of proteopathic seed transmission from donor cells to recipient cells can be analyzed using microscopy, flow cytometry, or imaging flow cytometry. […] Treatment of the tau biosensor cells with tau seeds lead to RD aggregation, as a result, CFP and YFP molecules come into close proximity and a FRET signal can be generated in the CFP/YFP pair upon illumination. The far-red fluorescent, lipophilic carbocyanine dye, DiD, was used for labeling recipient cells. This dye allowed for distinguishing between the DiD-negative donor and the DiD positive recipient cells without interference with the CFP/YFP FRET signal. The representative images of DiD-negative FRETpositive donor cell seeded with P2-derived tau seeds), DiD-positive FRET-negative recipient cell (DiD-R), and DiD positive FRET-positive recipient cell, which were growing in the presence of P2-D (DiD-R/R+D) are presented at the FIG. 4B. […]

[2] = test system: HEK293T Tau RD P301S FRET biosensor cells; assay: EV-mediated tau transfer assay
Procedure: For EV (extracellular vesicles)-mediated tau transfer assay, donor cells, transduced with AD-brain derived synaptosomal extracts (P2) or synthetic K18 seeds, were cultured for 48 hours in exosome-free medium with or without indicated concentration of tested compounds or DMSO for control, then medium was collected and EVs were purified using Exo-Quick-TC exosome purification kit (SBI, EXOTC10A-1) according to the manufacturing instructions. Naive recipient cells were plated at density 30,000 cells per well (96-well plates), grown for 12 hour in regular medium and then medium was exchanged to exosome-depleted medium, contained exosomes purified from donor cells (each well of recipients received amount of exosomes purified from one well of donor cells). Recipient cells were cultured in the presence of donor cell exosomes for 60 hrs. EV-mediated transfer assay scheme is presented at the FIG. 5A (right).
HEK293T Tau RD P301S FRET biosensor cells were growing in the Dulbecco's Modified Eagle's medium (DMEM) with higher glucose, 10% FBS, and 1% Penicillin-streptomycin at 37° C./5% CO2. Cells were plated in 10-sm dishes (3 million cells per dish in the regular medium) and grown for 12 hrs. Cells assigned to be donors were transduced with pulled synaptosomal (P2) extracts from AD cases using lipofectamine 2000, according to the published literature with minor modifications. We used 35 μg of pulled AD or control (NL) material per one 10-sm dish (TableS1). Defrosted P2 extracts were sonicated in water bath sonicator for 10 minutes, and diluted with Opti-MEM serum reduced medium to the final volume 200 μL per 10-sm dish. In a separate tube lipofectamine 2000 were combined with Opti-MEM medium, based on 25 μl of lipofectamine and 175 μL OptiMEM medium per each 10-sm dish, and incubated for 10 minutes at room temperature (RT). Each P2 or NL extract mix (200 μl) and prepared lipofectamine 2000 mix (200 μl) were combined and incubated for 20 min at RT. Each 10-sm dish with cell received 400 μl of the final liposomes in the total volume of medium 5 ml per dish. Cultures treated with equal amount of empty liposomes were used as an additional control group. Cells were incubated with liposomes for 20 hrs.
For “D+R” assay recipient cells were labeled with 1,1′-Dioctadecyl-3,3,3′,3′-tetramethylindodicarbocyanine (DiD) according to manufacturer's protocol (ThermoFisher V22887) on day 2. On day 3, donor cells were trypsinized (0.05% Trypsin/EDTA), washed with fresh exosome-free medium contained 10% of exosome-depleted FBS (ThermoFisher, A2720803). DiD-labeled recipient cells were also trypsinized and washed in exosome-free medium. […] FRET signal was detected using LSRII flow cytometer (BD biosciences). […]

[3] = test system: P2-seeded tau biosensor cells; assay: EV purification and characterization (immunoblot of exosome markers, nanoparticle tracking analysis); details: 50 μM, 48 hours, nanoparticle tracking analysis
Source text: Extracellular vesicles (EVs) were purified from the cell culture medium using Exo-Quick-TC exosome purification kit (SBI, EXOTC10A-1) according to the manufacturing instructions. Immunoblot analysis of the EV fractions was done by 10-20% Tris-Glycine gel in non-reduced conditions, transferred to PVDF membrane and probed with antibodies against CD63 (ThermoFisher, 10628D), followed by HRP-conjugated secondary antibodies. Chemiluminescent signals were obtained with Super Signal West Femto substrate (Thermo Scientific Pierce 34,095) and detected using a BioSpectrum 600 imaging system and quantified using VisionWorks Version 6.6A software (UVP; Upland, Calif.). […] Inhibition of nSMase2 activity in cell extracts of confluent tau biosensors was confirmed by nSMase2 activity assay analogous to the one described in Example 2.
Our analysis confirmed that nSMase2 inhibitors suppress release of EVs from P2-seeded tau biosensor cells. […] EV samples purified from the same number of donor cells were analyzed per each group. Purified EVs were imaged by transmission electron microscopy (FIG. 5C). Size distribution of particles in the samples were assessed by nanoparticle tracking analysis (FIG. 5D). WB analysis for exosome markers also confirmed decrease in the exosome-specific marker expression (FIG. 5E).
Donor cells were grown in medium with exosome-depleted FBS (ThermoFisher, A2720803) for 48 hours with or without compounds, cell culture medium was collected and EVs purified using ExoQuick-TC kit (SBI biosciences). For quality control, small amounts of purified EVs were fixed on a copper mesh in glutaraldehyde/paraformaldehyde solution, stained with 2% uranyl acetate solution and imaged on a JEOL 100CX electron microscope at 29,000 times magnification. […] Chemiluminescent signals were obtained with Super Signal West Femto substrate (Thermo Scientific Pierce 34095) and detected using a BioSpectrum 600 imaging system and quantified using VisionWorks Version 6.6A software (UVP; Upland, Calif.).

O=C(/C=C/c1ccc(/C=C/C(=O)Nc2ccc(C3=NCCN3)cc2)cc1)Nc1ccc(C2=NCCN2)cc1 [GW4869]
tau seed transmission from donor cells to recipient cells [1]: restrained tau seed transmission from the donor cells to the recipient cells in a dose-dependent manner
EV-mediated transfer of tau to recipient cells ([2]; P2-seeded donor cells treated at 50 μM, 48 hours): decrease
reduction of EV-mediated transfer of tau seeds to naive recipient cells ([2]; inhibitor treatment of donor cells): 2.6 times
release of EVs from P2-seeded donor cells [3]: released less EVs
